In patent US11701434B2, “Tertiary amino lipidated cationic peptides for nucleic acid delivery” (Nutcracker Therapeutics, Inc., priority 2018, dated 2023):

What was measured:
[1] = Dynamic light scattering (DLS) of Fluc mRNA/peptoid formulations: particle size and polydispersity; assay type: physicochemical; details: 5:1 mass ratio peptoid:cargo; for Size (volume average particle size/diameter): Fluc mRNA/peptoid complex; for Size PDI (size polydispersity index): Fluc mRNA/peptoid formulation
Description: (§1) In standard formulations, the tertiary amino lipidated and/or PEGylated cationic peptide compound is dissolved in anhydrous ethanol at a concentration of 0.5 mg/mL (for in vitro experiments) or 5 mg/mL (for in vivo experiments). The resulting solutions are stable at room temperature, but should be stored at −20° C. The nucleic acid cargo is dissolved in DNAse or RNAse-free water at a final concentration of 0.2 mg/mL (for in vitro experiments) or 1 mg/mL (for in vivo experiments). These solutions should be stored at −20° C. or at −78° C. for longer time periods. To prepare nanoparticle formulations, the tertiary amino lipidated and/or PEGylated cationic peptide compound is mixed by pipetting with nucleic acid at a mass ratio between approximately 1:1 (peptide compound:cargo) and 20:1. Prior to formulation, tertiary amino lipidated and/or PEGylated cationic peptide compounds and cargo (such as nucleic acid) are diluted in ethanol and acidic buffer (PBS adjusted to pH 5.5 with 0.1 M HCl) respectively to a volume ratio of 1:3 and to target a final cargo concentration of approximately 0.05 mg/mL to 0.2 mg/mL. The exemplary amino lipidated cationic peptoids 1-36 described in Example 2 were combined with firefly luciferase (Flue) mRNA to form nanoparticle compositions to be evaluated for therapeutic and/or prophylactic purposes in vitro or in vivo. The formulations were prepared according to the protocol of Example 3 and mixed by simple pipetting. The mRNA/peptoid formulation at a 5:1 mass ratio of peptoid:cargo were evaluated by dynamic light scattering (DLS) in order to determine the volume average particle size/diameter (nm) of the mRNA/peptoid complex and the size polydispersity index (PDI) within the formulation. The percentage of mRNA encapsulation for each formulation of the exemplary compounds were determined by fluorescence of the Qubit RNA HS (Invitrogen) dye before and after lysis of particles by Triton X-100.

[2] = mRNA encapsulation by Qubit RNA HS dye fluorescence before and after Triton X-100 lysis; assay type: physicochemical; details: Fluc mRNA/peptoid formulation, 5:1 mass ratio peptoid:cargo
Description: as §1

| Size (volume average particle size/diameter) [1] [nm] | Size PDI (size polydispersity index) [1] | % Encapsulation (percentage of mRNA encapsulation) [2] [%] | Structure (SMILES) |
| --- | --- | --- | --- |
| 308 | 0.085 | 52.0 | CCCCCCCCCCN(CC(N)=O)C(=O)CN(CCCCCCCCCC)C(=O)CN(CCCCCCCCCC)C(=O)CN(CCCCCCCCCC)C(=O)CN(CCc1ccccc1)C(=O)CN(CCc1ccccc1)C(=O)CN(CCCN)C(=O)CN(CCc1ccccc1)C(=O)CN(CCc1ccccc1)C(=O)CN(CCCN)C(=O)CN(CCc1ccccc1)C(=O)CN(CCc1ccccc1)C(=O)CNCCCN [Compound 28] |
| 364.7 | 0.308 | 88.3 | CCCCCCCCCCCCCCCCCCN(CC(N)=O)C(=O)CN(CCCCCCCCCCCCCCCCCC)C(=O)CN(CCc1ccccc1)C(=O)CN(CCc1ccccc1)C(=O)CN(CCN)C(=O)CN(CCc1ccccc1)C(=O)CN(CCc1ccccc1)C(=O)CN(CCN)C(=O)CN(CCc1ccccc1)C(=O)CN(CCc1ccccc1)C(=O)CNCCN [Compound 5] |
| 247.5 | 0.274 | 50.9 | CCCCCCCCCCN(CC(N)=O)C(=O)CN(CCCCCCCCCC)C(=O)CN(CCCCCCCCCC)C(=O)CN(CCCCCCCCCC)C(=O)CN(CCc1ccccc1)C(=O)CN(CCc1ccccc1)C(=O)CN(CC1CCNCC1)C(=O)CN(CCc1ccccc1)C(=O)CN(CCc1ccccc1)C(=O)CN(CC1CCNCC1)C(=O)CN(CCc1ccccc1)C(=O)CN(CCc1ccccc1)C(=O)CN(CC1CCNCC1)C(=O)CN(CCc1ccccc1)C(=O)CN(CCc1ccccc1)C(=O)CNCC1CCNCC1 [Compound 32] |
| 354.9 | 0.038 | 87.8 | CCCCCCCCCCN(CC(N)=O)C(=O)CN(CCCCCCCCCC)C(=O)CN(CCc1ccccc1)C(=O)CN(CCc1ccccc1)C(=O)CN(CCN)C(=O)CN(CCc1ccccc1)C(=O)CN(CCc1ccccc1)C(=O)CN(CCN)C(=O)CN(CCc1ccccc1)C(=O)CN(CCc1ccccc1)C(=O)CN(CCN)C(=O)CN(CCc1ccccc1)C(=O)CN(CCc1ccccc1)C(=O)CNCCN [Compound 11] |
| 326.6 | 0.37 | 72.2 | CCCCCCCCCCN(CC(N)=O)C(=O)CN(CCCCCCCCCC)C(=O)CN(CCCCCCCCCC)C(=O)CN(CCCCCCCCCC)C(=O)CN(CCCCCCCCCC)C(=O)CN(CCc1ccccc1)C(=O)CN(CCc1ccccc1)C(=O)CN(CCN)C(=O)CN(CCc1ccccc1)C(=O)CN(CCc1ccccc1)C(=O)CNCCN [Compound 20] |
| 150 | 0.128 | 100.3 | CCCCCCCCCCN(CC(N)=O)C(=O)CN(CCCCCCCCCC)C(=O)CN(CCc1ccccc1)C(=O)CN(CCc1ccccc1)C(=O)CN(CCN)C(=O)CN(CCc1ccccc1)C(=O)CN(CCc1ccccc1)C(=O)CN(CCN)C(=O)CN(CCc1ccccc1)C(=O)CN(CCc1ccccc1)C(=O)CNCCN [Compound 2] |
| 296.7 | 0.177 | 88.4 | CCCCCCCCCCN(CC(N)=O)C(=O)CN(CCCCCCCCCC)C(=O)CN(CCCCCCCCCC)C(=O)CN(CCc1ccccc1)C(=O)CN(CCc1ccccc1)C(=O)CN(CCN)C(=O)CN(CCc1ccccc1)C(=O)CN(CCc1ccccc1)C(=O)CN(CCN)C(=O)CN(CCc1ccccc1)C(=O)CN(CCc1ccccc1)C(=O)CNCCN [Compound 7] |
| 773.3 | 0.021 | 8.4 | CCCCCCCCCCN(CC(N)=O)C(=O)CN(CCCCCCCCCC)C(=O)CN(CCCCCCCCCC)C(=O)CN(CCCCCCCCCC)C(=O)CN(CCc1ccccc1)C(=O)CN(CCc1ccccc1)C(=O)CN(CCNC)C(=O)CN(CCc1ccccc1)C(=O)CN(CCc1ccccc1)C(=O)CN(CCNC)C(=O)CN(CCc1ccccc1)C(=O)CN(CCc1ccccc1)C(=O)CNCCNC [Compound 25] |
|  |  | 3.9 | CCCCCCCCCCN(CC(N)=O)C(=O)CN(CCCCCCCCCC)C(=O)CN(CCCCCCCCCC)C(=O)CN(CCCCCCCCCC)C(=O)CN(CCCCCCCCCC)C(=O)CN(CCCCCCCCCC)C(=O)CN(CCCCCCCCCC)C(=O)CN(CCc1ccccc1)C(=O)CN(CCc1ccccc1)C(=O)CN(CCN)C(=O)CN(CCc1ccccc1)C(=O)CN(CCc1ccccc1)C(=O)CN(CCN)C(=O)CN(CCc1ccccc1)C(=O)CN(CCc1ccccc1)C(=O)CNCCN [Compound 23] |
| 348.5 | 0.404 | 35.7 | CCCCCCCCCCN(CC(N)=O)C(=O)CN(CCCCCCCCCC)C(=O)CN(CCCCCCCCCC)C(=O)CN(CCCCCCCCCC)C(=O)CN(CCc1ccccc1)C(=O)CN(CCc1ccccc1)C(=O)CN(CC1CCNCC1)C(=O)CN(CCc1ccccc1)C(=O)CN(CCc1ccccc1)C(=O)CN(CC1CCNCC1)C(=O)CN(CCc1ccccc1)C(=O)CN(CCc1ccccc1)C(=O)CNCC1CCNCC1 [Compound 31] |
|  |  | 35.7 | CCCCCCCCCCN(CC(N)=O)C(=O)CN(CCCCCCCCCC)C(=O)CN(CCCCCCCCCC)C(=O)CN(CCCCCCCCCC)C(=O)CN(CCc1ccccc1)C(=O)CN(CCc1ccccc1)C(=O)CN(CCNC)C(=O)CN(CCc1ccccc1)C(=O)CN(CCc1ccccc1)C(=O)CN(CCNC)C(=O)CN(CCc1ccccc1)C(=O)CN(CCc1ccccc1)C(=O)CN(CCNC)C(=O)CN(CCc1ccccc1)C(=O)CN(CCc1ccccc1)C(=O)CNCCNC [Compound 26] |

Further lines, the compound ahead of its results:

| Structure (SMILES) | Size (volume average particle size/diameter) [1] [nm] | Size PDI (size polydispersity index) [1] | % Encapsulation (percentage of mRNA encapsulation) [2] [%] |
| --- | --- | --- | --- |
| CCCCCCCCCCN(CC(N)=O)C(=O)CN(CCCCCCCCCC)C(=O)CN(CCc1ccccc1)C(=O)CN(CCc1ccccc1)C(=O)CN(CC1CCNCC1)C(=O)CN(CCc1ccccc1)C(=O)CN(CCc1ccccc1)C(=O)CN(CC1CCNCC1)C(=O)CN(CCc1ccccc1)C(=O)CN(CCc1ccccc1)C(=O)CNCC1CCNCC1 [Compound 33] | 435.7 | 0.048 | 82.0 |
| CCCCCCCCCCN(CC(N)=O)C(=O)CN(CCCCCCCCCC)C(=O)CN(CCc1ccccc1)C(=O)CN(CCc1ccccc1)C(=O)CNCCN [Compound 9] | 367.9 | 0.122 | 73.9 |
| CCCCCCCCCCN(CC(N)=O)C(=O)CN(CCCCCCCCCC)C(=O)CN(CCc1ccccc1)C(=O)CN(CCN)C(=O)CN(CCc1ccccc1)C(=O)CN(CCN)C(=O)CN(CCc1ccccc1)C(=O)CNCCN [Compound 13] | 822.6 | 0.447 | 90.4 |
| CCCCCCCCCCN(CC(N)=O)C(=O)CN(CCCCCCCCCC)C(=O)CN(CCc1ccccc1)C(=O)CN(CCc1ccccc1)C(=O)CN(CCN)C(=O)CN(CCc1ccccc1)C(=O)CN(CCc1ccccc1)C(=O)CNCCN [Compound 10] | 157 | 0.009 | 92.6 |
| CCCCCCCCCCN(CC(N)=O)C(=O)CN(CCCCCCCCCC)C(=O)CN(CCc1ccccc1)C(=O)CN(CCc1ccccc1)C(=O)CN(CCNC)C(=O)CN(CCc1ccccc1)C(=O)CN(CCc1ccccc1)C(=O)CN(CCNC)C(=O)CN(CCc1ccccc1)C(=O)CN(CCc1ccccc1)C(=O)CNCCNC [Compound 27] | 438.7 | 0.606 | 50.9 |
| CCCCCCCCN(CC(N)=O)C(=O)CN(CCCCCCCC)C(=O)CN(CCc1ccccc1)C(=O)CN(CCc1ccccc1)C(=O)CN(CCN)C(=O)CN(CCc1ccccc1)C(=O)CN(CCc1ccccc1)C(=O)CN(CCN)C(=O)CN(CCc1ccccc1)C(=O)CN(CCc1ccccc1)C(=O)CNCCN [Compound 1] | 356.9 | 0.047 | 90.1 |
| CCCCCCCCCCN(CC(N)=O)C(=O)CN(CCCCCCCCCC)C(=O)CN(CCN)C(=O)CN(CCN)C(=O)CN(CCN)C(=O)CN(CCN)C(=O)CN(CCN)C(=O)CN(CCN)C(=O)CN(CCN)C(=O)CN(CCN)C(=O)CNCCN [Compound 16] | 1486 | 1 | 85.4 |
| CCCCCCCCCCN(CC(N)=O)C(=O)CN(CCCCCCCCCC)C(=O)CN(CCN)C(=O)CN(CCN)C(=O)CN(CCN)C(=O)CN(CCN)C(=O)CNCCN [Compound 15] | 1064 | 1 | 76.9 |
| CCCCCCCCCCN(CC(N)=O)C(=O)CN(CCCCCCCCCC)C(=O)CN(CCc1ccccc1)C(=O)CN(CCc1ccccc1)C(=O)CN(CCCN)C(=O)CN(CCc1ccccc1)C(=O)CN(CCc1ccccc1)C(=O)CN(CCCN)C(=O)CN(CCc1ccccc1)C(=O)CN(CCc1ccccc1)C(=O)CNCCCN [Compound 30] | 282.8 | 0.455 | 8.4 |
